Assay results from ChEMBL document CHEMBL3102770, “Development and pharmacological characterization of conformationally constrained urotensin II-related peptide agonists” (J Med Chem, 2013).
Calls of active or inactive are those of the source. No cut-off for these calls is given here. Positions of bridges follow the written chain, without caps; N, C: chain ends. Residues, ends and D or L forms follow the SMILES beside them.

What was measured:
[1] = target: T1, Urotensin-2 receptor (Rattus norvegicus) (UniProt P49684); assay: Agonist activity at urotensin-2 receptor in Sprague-Dawley rat aortic rings assessed as KCl-induced vasoconstriction at 10^-5.5 M relative to control
T1 sequence (whole entry): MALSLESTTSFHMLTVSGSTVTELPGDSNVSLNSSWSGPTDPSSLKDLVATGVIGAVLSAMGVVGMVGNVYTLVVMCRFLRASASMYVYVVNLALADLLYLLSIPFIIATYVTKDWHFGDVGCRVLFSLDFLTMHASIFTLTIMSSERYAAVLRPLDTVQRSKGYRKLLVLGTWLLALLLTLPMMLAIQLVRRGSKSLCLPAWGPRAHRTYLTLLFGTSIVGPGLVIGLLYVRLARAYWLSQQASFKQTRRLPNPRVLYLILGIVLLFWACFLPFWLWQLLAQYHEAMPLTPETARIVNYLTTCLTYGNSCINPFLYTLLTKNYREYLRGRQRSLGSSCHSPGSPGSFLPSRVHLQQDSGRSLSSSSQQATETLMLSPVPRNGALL

Urotensin-2 receptor [2] = target: T2, Urotensin-2 receptor (Rattus norvegicus, UniProt P49684); assay: Agonist activity at urotensin-2 receptor in Sprague-Dawley rat aortic rings assessed as KCl-induced vasoconstriction
T2 sequence (P49684 whole entry): T1 sequence (whole entry)

Urotensin-2 receptor [3] = target: T3, Urotensin-2 receptor (Homo sapiens, UniProt Q9UKP6); assay: Displacement of [125I]-Urotensin-2 from human GPR14 expressed in CHO cells after 90 mins by gamma counting analysis; assay type: cell-based
T3 sequence (Q9UKP6 whole entry): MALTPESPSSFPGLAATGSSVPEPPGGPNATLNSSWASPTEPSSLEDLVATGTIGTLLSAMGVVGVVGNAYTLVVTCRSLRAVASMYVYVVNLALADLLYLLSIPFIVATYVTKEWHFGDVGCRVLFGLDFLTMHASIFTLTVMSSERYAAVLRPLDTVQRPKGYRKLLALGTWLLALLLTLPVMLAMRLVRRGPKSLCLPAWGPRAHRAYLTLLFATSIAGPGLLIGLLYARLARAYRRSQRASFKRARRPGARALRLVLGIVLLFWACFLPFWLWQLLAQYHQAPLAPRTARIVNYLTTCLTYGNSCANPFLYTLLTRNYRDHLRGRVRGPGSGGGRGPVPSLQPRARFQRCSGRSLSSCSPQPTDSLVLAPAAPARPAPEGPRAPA

[4] = target: T1, Urotensin-2 receptor (Rattus norvegicus); assay: Agonist activity at urotensin-2 receptor in Sprague-Dawley rat aortic rings assessed as KCl-induced vasoconstriction at 3 X 10^-11 to 3 X 10^-6 M relative to control

Emax [1] [%] | EC50 (Urotensin-2 receptor [2]; read-out: pEC50 (converted)) [nM] | Emax [4] | EC50 (Urotensin-2 receptor [2]; read-out: EC50) [nM] | SMILES | further results
43 | > 1000 | – | – | CC(C)[C@H](NC(=O)[C@@H]1CSSC[C@H](NC(=O)[C@H](C)N)C(=O)N[C@@H](Cc2ccccc2)C(=O)N2Cc3ccccc3C[C@H]2C(=O)N[C@@H](CCCCN)C(=O)N[C@@H](Cc2ccc(O)cc2)C(=O)N1)C(=O)O | IC50 (Urotensin-2 receptor [3]; read-out: pIC50 (converted)): > 10000 nM
– | 380 | 51% | 181 | CC(C)[C@H](NC(=O)[C@@H]1CSSC[C@H](NC(=O)[C@H](C)N)C(=O)N[C@@H](Cc2ccccc2)C(=O)N[C@H]2Cc3c([nH]c4ccccc34)CN(C2=O)[C@@H](CCCCN)C(=O)N[C@@H](Cc2ccc(O)cc2)C(=O)N1)C(=O)O | IC50 (Urotensin-2 receptor [3]; read-out: IC50): 808 nM
69 | – | – | – | CC(C)[C@H](NC(=O)[C@@H]1CSSC[C@H](NC(=O)[C@H](CC(=O)O)NC(=O)[C@@H]2CCCN2C(=O)[C@@H](NC(=O)[C@@H](N)CCC(=O)O)[C@@H](C)O)C(=O)N[C@@H](Cc2ccccc2)C(=O)N2CCC[C@H]2C(=O)N[C@@H](CCCCN)C(=O)N[C@@H](Cc2ccc(O)cc2)C(=O)N1)C(=O)O (H-ETPDCFPKYCV-OH; disulfide 5-10) | –
23 | > 1000 | – | – | CC(C)[C@H](NC(=O)[C@@H]1CSSC[C@H](NC(=O)[C@H](C)N)C(=O)N[C@@H](Cc2ccccc2)C(=O)N[C@@H](C(c2ccccc2)c2ccccc2)C(=O)N[C@@H](CCCCN)C(=O)N[C@@H](Cc2ccc(O)cc2)C(=O)N1)C(=O)O | IC50 (Urotensin-2 receptor [3]; read-out: pIC50 (converted)): 282 nM
– | 162 | 148% | 159 | CC(C)[C@H](NC(=O)[C@@H]1CSSC[C@H](NC(=O)[C@H](C)N)C(=O)N[C@@H](Cc2ccccc2)C(=O)N[C@@H]2Cc3c([nH]c4ccccc34)CN(C2=O)[C@@H](CCCCN)C(=O)N[C@@H](Cc2ccc(O)cc2)C(=O)N1)C(=O)O | IC50 (Urotensin-2 receptor [3]; read-out: IC50): 60 nM
– | – | 86% | 54 | CC(C)[C@H](NC(=O)[C@@H]1CSSC[C@H](NC(=O)[C@H](C)N)C(=O)N[C@@H](Cc2ccccc2)C(=O)N[C@@H](Cc2cccc3ccccc23)C(=O)N[C@@H](CCCCN)C(=O)N[C@@H](Cc2ccc(O)cc2)C(=O)N1)C(=O)O | IC50 (Urotensin-2 receptor [3]; read-out: IC50): 17 nM
– | – | inactive | – | CC(C)[C@H](NC(=O)[C@@H]1CSSC[C@H](NC(=O)[C@H](C)N)C(=O)N[C@@H](Cc2ccccc2)C(=O)N2Cc3[nH]c4ccccc4c3C[C@H]2C(=O)N[C@@H](CCCN)C(=O)N[C@@H](Cc2ccc(O)cc2)C(=O)N1)C(=O)O | EC50 (Urotensin-2 receptor [2]): Not Active; IC50 (Urotensin-2 receptor [3]; read-out: pIC50 (converted)): > 10000 nM
– | – | 116% | 117 | CC(C)[C@H](NC(=O)[C@@H]1CSSC[C@H](NC(=O)[C@H](C)N)C(=O)N[C@@H](Cc2ccccc2)C(=O)N[C@H](c2ccccc2)C(=O)N[C@@H](CCCCN)C(=O)N[C@@H](Cc2ccc(O)cc2)C(=O)N1)C(=O)O | IC50 (Urotensin-2 receptor [3]; read-out: pIC50 (converted)): 27.5 nM
– | – | inactive | – | CC(C)[C@H](NC(=O)[C@@H]1CSSC(C)(C)[C@@H](NC(=O)[C@H](C)N)C(=O)N[C@@H](Cc2ccccc2)C(=O)N2CCc3ccccc3[C@H]2C(=O)N[C@@H](CCCCN)C(=O)N[C@@H](Cc2ccc(O)cc2)C(=O)N1)C(=O)O | –
– | – | – | – | CC(C)[C@H](NC(=O)[C@@H]1CSSC(C)(C)[C@H](NC(=O)[C@H](C)N)C(=O)N[C@@H](Cc2ccccc2)C(=O)N2CCc3ccccc3[C@H]2C(=O)N[C@@H](CCCCN)C(=O)N[C@@H](Cc2ccc(O)cc2)C(=O)N1)C(=O)O | EC50 (Urotensin-2 receptor [2]): Not Active
– | – | 139% | – | CC(C)[C@H](NC(=O)[C@@H]1CSSC[C@H](NC(=O)[C@H](C)N)C(=O)N[C@@H](Cc2ccccc2)C(=O)N2Cc3[nH]c4ccccc4c3C[C@H]2C(=O)N[C@@H](CCCCN)C(=O)N[C@@H](Cc2ccc(O)cc2)C(=O)N1)C(=O)O | –
77 | > 1000 | – | – | CC(C)[C@H](NC(=O)[C@@H]1CSSC[C@H](NC(=O)[C@H](C)N)C(=O)N[C@@H](Cc2ccccc2)C(=O)N[C@@H](CC2CCCCC2)C(=O)N[C@@H](CCCCN)C(=O)N[C@@H](Cc2ccc(O)cc2)C(=O)N1)C(=O)O | –
– | – | inactive | – | CC(C)[C@H](NC(=O)[C@@H]1CSSC[C@H](NC(=O)[C@H](C)N)C(=O)N[C@@H](Cc2ccccc2)C(=O)N2CCc3ccccc3[C@H]2C(=O)N[C@@H](CCCN)C(=O)N[C@@H](Cc2ccc(O)cc2)C(=O)N1)C(=O)O | EC50 (Urotensin-2 receptor [2]): Not Active; IC50 (Urotensin-2 receptor [3]; cho): Not Active
64 | > 1000 | – | – | CC(C)[C@H](NC(=O)[C@@H]1CSSC[C@H](NC(=O)[C@H](C)N)C(=O)N[C@@H](Cc2ccccc2)C(=O)N[C@H](C(C)(C)C)C(=O)N[C@@H](CCCCN)C(=O)N[C@@H](Cc2ccc(O)cc2)C(=O)N1)C(=O)O | IC50 (Urotensin-2 receptor [3]; read-out: pIC50 (converted)): > 1000 nM
92 | – | – | – | CC(C)[C@H](NC(=O)[C@@H]1CSSC[C@H](NC(=O)[C@H](C)N)C(=O)N[C@@H](Cc2ccccc2)C(=O)N[C@@H](Cc2ccc(I)cc2)C(=O)N[C@@H](CCCCN)C(=O)N[C@@H](Cc2ccc(O)cc2)C(=O)N1)C(=O)O | IC50 (Urotensin-2 receptor [3]; read-out: IC50): 58 nM
42 | – | – | – | CC(C)[C@H](NC(=O)[C@@H]1CSSC[C@H](NC(=O)[C@H](C)N)C(=O)N[C@@H](Cc2ccccc2)C(=O)N2Cc3[nH]c4ccccc4c3C[C@@H]2C(=O)N[C@@H](CCCCN)C(=O)N[C@@H](Cc2ccc(O)cc2)C(=O)N1)C(=O)O | –
– | – | 113% | 21 | CC(C)[C@H](NC(=O)[C@@H]1CSSC[C@H](NC(=O)[C@H](C)N)C(=O)N[C@@H](Cc2ccccc2)C(=O)N2CCc3ccccc3[C@@H]2C(=O)N[C@@H](CCCCN)C(=O)N[C@@H](Cc2ccc(O)cc2)C(=O)N1)C(=O)O | IC50 (Urotensin-2 receptor [3]; read-out: IC50): 21 nM
34 | – | – | 825 | CC(C)[C@H](NC(=O)[C@@H]1CSSC[C@H](NC(=O)[C@H](C)N)C(=O)N[C@@H](Cc2ccccc2)C(=O)N[C@H](Cc2cccc3ccccc23)C(=O)N[C@@H](CCCCN)C(=O)N[C@@H](Cc2ccc(O)cc2)C(=O)N1)C(=O)O | –
– | – | 126% | 22 | CC(C)[C@H](NC(=O)[C@@H]1CSSC[C@H](NC(=O)[C@H](C)N)C(=O)N[C@@H](Cc2ccccc2)C(=O)N2CCc3ccccc3[C@H]2C(=O)N[C@@H](CCCCN)C(=O)N[C@@H](Cc2ccc(O)cc2)C(=O)N1)C(=O)O | IC50 (Urotensin-2 receptor [3]; read-out: IC50): 10 nM
– | – | 102% | 251 | CC(C)[C@H](NC(=O)[C@@H]1CSSC[C@H](NC(=O)[C@H](C)N)C(=O)N[C@@H](Cc2ccccc2)C(=O)N[C@@H](c2ccccc2)C(=O)N[C@@H](CCCCN)C(=O)N[C@@H](Cc2ccc(O)cc2)C(=O)N1)C(=O)O | –
– | 8.13 | 100% | 7 | CC(C)[C@H](NC(=O)[C@@H]1CSSC[C@H](NC(=O)[C@H](C)N)C(=O)N[C@@H](Cc2ccccc2)C(=O)N[C@@H](Cc2c[nH]c3ccccc23)C(=O)N[C@@H](CCCCN)C(=O)N[C@@H](Cc2ccc(O)cc2)C(=O)N1)C(=O)O | –
– | – | inactive | – | CC(C)[C@H](NC(=O)[C@@H]1CSSC[C@H](NC(=O)[C@H](C)N)C(=O)N[C@@H](Cc2ccccc2)C(=O)N[C@@H](C(C)(C)C)C(=O)N[C@@H](CCCCN)C(=O)N[C@@H](Cc2ccc(O)cc2)C(=O)N1)C(=O)O | EC50 (Urotensin-2 receptor [2]): Not Active; IC50 (Urotensin-2 receptor [3]; read-out: pIC50 (converted)): > 10000 nM
– | 832 | 128% | 259 | CC(C)[C@H](NC(=O)[C@@H]1CSSC[C@H](NC(=O)[C@H](C)N)C(=O)N[C@@H](Cc2ccccc2)C(=O)N2Cc3ccccc3C[C@@H]2C(=O)N[C@@H](CCCCN)C(=O)N[C@@H](Cc2ccc(O)cc2)C(=O)N1)C(=O)O | –

SMILES | Emax [1] [%] | EC50 (Urotensin-2 receptor [2]; read-out: pEC50 (converted)) [nM] | Emax [4] | EC50 (Urotensin-2 receptor [2]; read-out: EC50) [nM] | further results
CC(C)[C@H](NC(=O)[C@@H]1CSSC[C@H](NC(=O)[C@H](CC(=O)O)NC(=O)[C@@H]2CCCN2C(=O)[C@@H](NC(=O)[C@@H](N)CCC(=O)O)[C@@H](C)O)C(=O)N[C@@H](Cc2ccccc2)C(=O)N[C@@H](Cc2c[nH]c3ccccc23)C(=O)N[C@@H](CCCCN)C(=O)N[C@@H](Cc2ccc(O)cc2)C(=O)N1)C(=O)O [HUMAN UROTENSIN II] | – | 0.832 | – | 1 | –
CC(C)[C@H](NC(=O)[C@@H]1CSSC[C@@H](NC(=O)[C@H](CC(=O)O)NC(=O)[C@H]2CCCN2C(=O)[C@@H](NC(=O)[C@@H](N)CCC(=O)O)[C@@H](C)O)C(=O)N[C@H](Cc2ccccc2)C(=O)N[C@@H](Cc2c[nH]c3ccccc23)C(=O)N[C@H](CCCCN)C(=O)N[C@@H](Cc2ccc(O)cc2)C(=O)N1)C(=O)O | – | – | 117% | – | –
